According to patent publication US7531545B2, “2-amino-3,4-dihydro-pyrido[3,4-d]pyrimidine derivatives useful as inhibitors of β-secretase (BACE)” (Janssen Pharmaceutica, N.V., priority 2005, dated 2009):
pKi: −log10 of the molar value. Counter-ions that a name gives are not always drawn.

Molecular target: T1, β-secretase (BACE) (Homo sapiens, UniProt P56817)
T1 construct: purchased Panvera
Assay: BACE FS1 Assay (% Inhibition and Ki)
Type: biochemical
Settings: FS1 substrate; for inhibition at 0.3 µM / % Inhibition (FS) @ 0.3 μM: 0.3 μM test compound; for inhibition at 0.3 µM: read-out: % Inhibition (FS) @ 0.3 μM; for inhibition at 1 µM: read-out: % Inhibition (FS) @ 1 μM; for inhibition at 3 µM: read-out: % Inhibition (FS) @ 3 μM
Description: BACE FS1 Assay (% Inhibition and Ki)
The following reagents were used in this assay: sodium acetate, PEG8000 (Sigma), DMSO, HEPES, FS1 substrate [R(AedensE)[…]-(DabcylK)R], β-secretase (BACE) (Panvera), and 96-well plate (HE microplate, Molecular Devices).
The following assay buffers were prepared and used in this assay: (1) enzyme assay buffer (0.05 M sodium acetate, pH5, 0.1% PEG8000 (w/v)), (2) substrate assay buffer (0.05 M sodium acetate, pH5), and (3) compound vehicle (30% DMSO in 50 mM HEPES, pH 7.4).
The FS1-substrate stock solution was prepared in DMSO as a 10 mg/mL solution. The FS1-substrate working solution was prepared by diluting the 10 mg/mL stock solution with substrate assay buffer to a final concentration of 300 μg/mL. The β-secretase (BACE) working solution was prepared by diluting a 0.83 mg/mL BACE stock solution with enzyme assay buffer to a final concentration of 4 μg/mL.
Test compounds were dissolved in DMSO to 10 mM. Compounds were further diluted in vehicle to various concentrations in the range of 405 μM to 4.05 μM (13.5× final compound concentration in screening plate).
The screening procedure for this assay was as follows: 15 μL of BACE working solution was pipetted into each well of a 96-well plate. To each well was then pipetted 2 μL of test compound at the selected concentration. Test compound and BACE were then mixed with a pipettor and incubated for 20 min at room temperature. To each well was then added 10 μL of the FS1 substrate working solution. The plates were then incubated for 1 hour at room temperature. The fluorescence for each well was then measured on an LJL analyst (Ex 360 nm/Em 530 nm).
The procedure for the blank was as follows. 15 μL of assay buffer was pipetted into each well to be used as a blank control. To each well was then added 2 μL of vehicle and […] of FS1-substrate working solution. The plates were then incubated for 1 hour at room temperature. The fluorescence was measured on an LJL analyst (Ex 360 nm/Em 530 nm).
The procedure for the positive control was as follows: 15 μL of BACE working solution was pipetted into each well to be used as a positive control. To each well was then pipetted 2 μL of vehicle. Vehicle and BACE were then mixed with a pipettor and incubated for 20 min at room temperature. To each well was then added 10 μL of the FS1 substrate working solution. The plates were then incubated for 1 hour at room temperature. The fluorescence (F1) was then measured on an LJL analyst (Ex 360 nm/Em 530 nm).
For test compounds, % inhibition was determined at each concentration as follows:
% Inhibition values of less than 30% were indistinguishable from control are listed as ≦30% in Table 18, below.
For test compounds, measured at multiple concentrations, the measured T0 and T60 values were used to calculate an IC50 value using Graphpad Software (or PIR). Ki inhibition was determined as follows: For each compound concentration and positive control, rate of cleavage of substrate (Vi, where i=compound concentration in μM) was determined as Δ Fluorescence/Δ time (min). Cleavage rates (Vi) were plotted as a function of inhibitor concentration in μM [I]. […]

T1 sequence (P56817 46-501): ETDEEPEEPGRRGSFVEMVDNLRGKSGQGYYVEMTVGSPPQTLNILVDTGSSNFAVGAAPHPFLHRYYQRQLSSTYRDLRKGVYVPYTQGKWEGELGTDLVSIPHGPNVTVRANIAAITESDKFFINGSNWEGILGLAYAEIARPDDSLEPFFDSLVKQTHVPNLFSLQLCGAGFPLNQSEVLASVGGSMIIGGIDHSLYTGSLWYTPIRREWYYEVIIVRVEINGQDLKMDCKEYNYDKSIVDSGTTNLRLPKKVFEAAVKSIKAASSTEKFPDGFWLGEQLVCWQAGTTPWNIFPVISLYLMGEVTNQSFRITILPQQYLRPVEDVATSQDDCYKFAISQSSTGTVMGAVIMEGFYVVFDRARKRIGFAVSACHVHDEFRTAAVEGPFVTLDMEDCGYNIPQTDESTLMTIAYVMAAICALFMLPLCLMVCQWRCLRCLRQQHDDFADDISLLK

Row | Compound | inhibition at 0.3 µM | inhibition at 1 µM (1 μM test compound) | inhibition at 3 µM (3 μM test compound) | pKi | % Inhibition (FS) @ 0.3 μM | % Inhibition (FS) @ 1 μM (1 μM test compound, 1 µM) | % Inhibition (FS) @ 3 μM (3 μM test compound, 3 µM)
1 | CC(C)[C@H](CCC(=O)N(CCO)C(C)C)N1Cc2cc(Oc3ccccc3)ncc2N=C1N [Compound 21] | 51% | 83% | 97% | 7.13 | – | – | –
2 | CCOC(=O)C1CCC(N(C)C(=O)CCC(C2CCOCC2)N2Cc3cc(Oc4ccccc4)ncc3N=C2N)CC1 (centres unmarked) [Compound 27] | 16% | 96% | 110% | 6.71 | – | – | –
3 | COC(=O)[C@@H](CO)NC(=O)CC[C@@H](C(C)C)N1Cc2cc(Oc3ccccc3)ncc2N=C1N [Compound 28] | 116% | 124% | 128% | 7.77 | – | – | –
4 | CC(C)[C@H](CO)NC(=O)CC[C@@H](C(C)C)N1Cc2cc(Oc3ccccc3)ncc2N=C1N [Compound 29] | – | 115% | 119% | 7.51 | 93% | – | –
5 | CC(C)[C@H](CCC(=O)N[C@H](CO)C(=O)O)N1Cc2cc(Oc3ccccc3)ncc2N=C1N [Compound 30] | 91% | 106% | 117% | 7.01 | – | – | –
6 | COC(=O)[C@H]1CC[C@@H](N(C)C(=O)CC[C@@H](C2CCOCC2)N2Cc3cc(Oc4ccccc4)ncc3N=C2N)CC1 [Compound 32] | 79% | 101% | 109% | 7.70 | – | – | –
7 | CC(C)[C@H](CO)NC(=O)CC[C@@H](C(C)C)N1Cc2cc(Oc3ccccc3)ncc2N=C1N [Compound 36] | – | – | – | 7.68 | 114% | 112% | 114%
8 | NC1=Nc2cnc(Oc3ccccc3)cc2CN1[C@@H](CCC(=O)N(CCO)[C@H]1CC[C@@H](C(=O)O)CC1)C1CCOCC1 [Compound 38, 4-[[4-(2-Amino-6-phenoxy-4H-pyrido[3,4-d]pyrimidin-3-yl)-4-(S)-(tetrahydro-pyran-4-yl)-butyryl]-(2-hydroxy-ethyl)-amino]-cyclohexanecarboxylic acid] | 112% | 110% | 115% | 8.05 | – | – | –
9 | NC1=Nc2cnc(Oc3ccccc3)cc2CN1[C@@H](CCC(=O)N(CCOCc1ccccc1)[C@H]1CC[C@@H](C(=O)O)CC1)C1CCOCC1 [Compound 39, 4-[[4-(2-Amino-6-phenoxy-4H-pyrido[3,4-d]pyrimidin-3-yl)-4-(S)-(tetrahydro-pyran-4-yl)-butyryl]-(2-benzyloxy-ethyl)-amino]-cyclohexanecarboxylic acid] | 112% | 110% | 115% | 7.89 | – | – | –
10 | COC(=O)[C@H](COCc1ccccc1)NC(=O)CC[C@@H](C(C)C)N1Cc2cc(Oc3ccccc3)ncc2N=C1N [Compound 45, 2-[4-(2-Amino-6-phenoxy-4H-pyrido[3,4-d]pyrimidin-3-yl)-5-methyl-(S)-hexanoylamino]-3-(S)-benzyloxy-propionic acid methyl ester hydrobromide salt] | 82% | 91% | 110% | 6.90 | – | – | –
11 | CC(C)[C@H](CCC(=O)N[C@@H](COCc1ccccc1)C(=O)O)N1Cc2cc(Oc3ccccc3)ncc2N=C1N [Compound 47, 2-[4-(2-Amino-6-phenoxy-4H-pyrido[3,4-d]pyrimidin-3-yl)-5-methyl-(S)-hexanoylamino]-3-(S)-benzyloxy-propionic acid] | 109% | 109% | 115% | 7.14 | – | – | –
12 | CC(C)[C@H](CCC(=O)N[C@H](COCc1ccccc1)C(=O)OCc1ccccc1)N1Cc2cc(Oc3ccccc3)ncc2N=C1N [Compound 48] | 73% | 107% | 116% | 7.44 | – | – | –
13 | COC(=O)[C@H](COCc1ccccc1)N(C)C(=O)CC[C@@H](C(C)C)N1Cc2cc(Oc3ccccc3)ncc2N=C1N [Compound 51, 2-{[4-(2-Amino-6-phenoxy-4H-pyrido[3,4-d]pyrimidin-3-yl)-5-methyl-(S)-hexanoyl]-methyl-amino}-3-(S)-benzyloxy-propionic acid methyl ester trifluoroacetate salt] | 114% | 118% | 118% | 7.85 | – | – | –

Now from value to compound:

Row | inhibition at 0.3 µM | inhibition at 1 µM (1 μM test compound) | inhibition at 3 µM (3 μM test compound) | pKi | % Inhibition (FS) @ 0.3 μM | % Inhibition (FS) @ 1 μM (1 μM test compound, 1 µM) | % Inhibition (FS) @ 3 μM (3 μM test compound, 3 µM) | Compound
14 | 88% | 103% | 104% | 7.26 | – | – | – | CC(C)[C@H](CCC(=O)N(CCCO)C1CCCCC1)N1Cc2cc(Oc3ccccc3)ncc2N=C1N [Compound 19]
15 | 97% | 102% | 104% | 7.89 | – | – | – | CC(C)C(CCC(=O)N(CCO)C1CCC(C(=O)O)CC1)N1Cc2cc(Oc3ccccc3)ncc2N=C1N (centres unmarked) [Compound 20]
16 | 0% | 61% | 93% | 6.76 | – | – | – | CN(C(=O)CCC(CCO)N1Cc2cc(Oc3ccccc3)ncc2N=C1N)C1CCCCC1 (centres unmarked) [Compound 22]
17 | 32% | 86% | 103% | 6.82 | – | – | – | COCCC(CCC(=O)N(C)C1CCCCC1)N1Cc2cc(Oc3ccccc3)ncc2N=C1N (centres unmarked) [Compound 23]
18 | 40% | 71% | 103% | 6.63 | – | – | – | CC(C)OCCC(CCC(=O)N(C)C1CCCCC1)N1Cc2cc(Oc3ccccc3)ncc2N=C1N (centres unmarked) [Compound 24]
19 | 110% | 124% | 124% | 7.66 | – | – | – | CN(C(=O)CCC(C1CCOCC1)N1Cc2cc(Oc3ccccc3)ncc2N=C1N)C1CCC(C(=O)O)CC1 (centres unmarked) [Compound 26]
20 | 129% | 125% | 125% | 8.10 | – | – | – | CC(C)[C@H](CCC(=O)N(CCO)C1CCCCC1)N1Cc2cc(Oc3ccccc3)ncc2N=C1N [Compound 31]
21 | 114% | 112% | 113% | 8.30 | – | – | – | CN(C(=O)CC[C@@H](C1CCOCC1)N1Cc2cc(Oc3ccccc3)ncc2N=C1N)[C@H]1CC[C@@H](C(=O)O)CC1 [Compound 33]
22 | 96% | 106% | 115% | 7.49 | – | – | – | COC(=O)[C@H]1CC[C@H](N(C)C(=O)CC[C@@H](C2CCOCC2)N2Cc3cc(Oc4ccccc4)ncc3N=C2N)CC1 [Compound 34]
23 | 112% | 111% | 114% | 7.92 | – | – | – | NC1=Nc2cnc(Oc3ccccc3)cc2CN1[C@@H](CCC(=O)N(CCO)[C@H]1CC[C@@H](C(=O)O)CC1)C1CCCCC1 [Compound 37]
24 | 110% | 107% | 115% | 7.80 | – | – | – | CC(C)[C@H](CCC(=O)N(C)[C@H]1CC[C@@H](C(=O)O)CC1)N1Cc2cc(Oc3ccccc3)ncc2N=C1N [Compound 43]
25 | 61% | 88% | 105% | 6.83 | – | – | – | CN(CCCCC(=O)O)C(=O)CC[C@@H](C1CCCCC1)N1Cc2cc(Oc3ccccc3)ncc2N=C1N [Compound 44]
26 | 68% | 100% | 112% | 7.24 | – | – | – | CCC(CC)N(CCO)C(=O)CC[C@@H](C1CCCCC1)N1Cc2cc(Oc3ccccc3)ncc2N=C1N [Compound 50]
